{
  "source": "patent US11278522B2",
  "about": "“Use of methadone metabolites for treatment of anxiety and depression” (Georgetown University, priority 2015, dated 2022)",
  "key": {"Forced swim test (mice)": {"experiment": "Forced swim test (mice)", "assay_type": "in vivo, mouse", "details": "6 min test", "experimental": "Forced Swim Test (FST; Mice) The FST in mice was conducted as previously described [11]. Briefly, 10 min following i.p. injection of saline, EDDP or EMDP, mice were placed in Plexiglas cylinders filled with water (25° C.) for 6 min while being videotaped. The forced swim score for the entire 6 min test was assessed using the Cleversystems videotracking system (CleverSys) and confirmed with visual scoring by a trained observer. A mouse was judged to be immobile when making only those movements necessary to keep its head above water."}, "rat α3β4 nAChR channels": {"target": "rat α3β4 nAChR channels (Rattus norvegicus, UniProt P04757+P12392)", "sequence (P04757 26-499)": "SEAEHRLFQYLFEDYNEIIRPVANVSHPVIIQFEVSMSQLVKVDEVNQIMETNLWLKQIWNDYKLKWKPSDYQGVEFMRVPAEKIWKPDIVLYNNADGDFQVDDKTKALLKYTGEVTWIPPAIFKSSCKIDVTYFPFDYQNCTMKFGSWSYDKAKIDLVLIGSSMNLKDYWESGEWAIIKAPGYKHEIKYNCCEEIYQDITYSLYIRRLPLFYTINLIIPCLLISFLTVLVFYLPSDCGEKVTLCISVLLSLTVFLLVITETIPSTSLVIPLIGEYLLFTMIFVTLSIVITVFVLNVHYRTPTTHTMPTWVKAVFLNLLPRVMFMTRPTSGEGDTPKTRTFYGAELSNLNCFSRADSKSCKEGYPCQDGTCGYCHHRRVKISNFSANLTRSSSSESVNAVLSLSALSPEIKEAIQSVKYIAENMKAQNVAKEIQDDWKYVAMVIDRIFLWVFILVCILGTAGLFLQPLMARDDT", "sequence (P12392 21-495)": "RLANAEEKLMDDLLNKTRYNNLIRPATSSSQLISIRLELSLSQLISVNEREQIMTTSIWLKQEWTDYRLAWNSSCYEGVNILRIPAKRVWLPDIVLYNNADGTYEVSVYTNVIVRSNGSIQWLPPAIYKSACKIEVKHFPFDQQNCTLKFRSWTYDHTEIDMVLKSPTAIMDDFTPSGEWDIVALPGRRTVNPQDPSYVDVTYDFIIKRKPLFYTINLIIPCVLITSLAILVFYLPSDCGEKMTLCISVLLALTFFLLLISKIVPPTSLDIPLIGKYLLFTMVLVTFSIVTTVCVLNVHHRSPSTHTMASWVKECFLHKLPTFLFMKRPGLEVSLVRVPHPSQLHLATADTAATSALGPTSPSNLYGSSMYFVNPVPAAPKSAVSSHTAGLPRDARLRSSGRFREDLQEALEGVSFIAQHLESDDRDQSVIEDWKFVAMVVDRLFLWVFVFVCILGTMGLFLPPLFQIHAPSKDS", "details": "Xiao et al., 2001; cited from earlier work"}, "Marble burying (mice)": {"experiment": "Marble burying (mice)", "assay_type": "in vivo, mouse", "details": "15 min test, vehicle mean 11 of 20", "experimental": "Marble Burying (Mice) After a 1 h period of acclimation to the testing room, the mice (n=6-10 per group) were injected i.p. with saline, EDDP, EMDP, or CDP at the doses indicated. Ten minutes later, the mice were placed individually in small cages (26×20×14 cm), in which twenty marbles had been equally distributed on top of mouse bedding (5-cm deep), and a wire lid was placed on top of the cage. Mice were left undisturbed for 15 min, after which time the number of buried marbles (i.e., those covered by bedding three-quarters or more) was counted."}, "[1]": {"experiment": "Elevated plus maze (rats)", "assay_type": "in vivo, rat", "experimental": "Elevated Plus Maze (Rats) Plus maze testing was performed and scored as previously described (Forcelli and Heinrichs, 2008; Forcelli et al., 2012), in a standard grey rat elevated plus maze (50 cm arms, elevated 40 cm off the ground [Stoelting Co., Wood Dale, Ill.]). Testing was conducted under 20 lux red light, 30 min after drug administration. The number of arm entries and time spent in open and closed arms were recorded using ANYmaze (Stoelting Co, Wood Dale, Ill.)."}, "Forced swim test (rats)": {"experiment": "Forced swim test (rats)", "assay_type": "in vivo, rat", "details": "three doses, 5 min test, vehicle 81 s", "experimental": "Forced Swim Test (FST; Rats) The FST in rats was conducted as previously described (Porsolt et al., 2001). On day 1, rats were placed in a cylindrical chamber (20 cm in diameter, 46 cm deep) filled to a height of 38 cm with room temperature water for 15 min. After the completion of this pre-exposure test, animals were removed from the apparatus, dried with towels and placed under a heat lamp for ˜30 min. […] Animals were treated with these same doses again 20 h and 23 h after the initial dose. Twenty-four h after the pre-exposure, animals were re-introduced to the apparatus and video-recorded for 5 min. Immobility was hand-scored for each video record by a treatment blind observer (P.A.F.) using ANYmaze (Stoelting) to record the data."}, "[2]": {"experiment": "Open field locomotor activity (rats)", "assay_type": "in vivo, rat", "details": "10 mg/kg s.c., 30 min after injection", "experimental": "Locomotor Activity (Rats) Locomotor activity was measured 30 minutes after sc injection of test compound. Animals were placed in a Plexiglass enclosure (16″×16″×16″, TruScan Arena, Coulbourn Instruments, Whitehall, Pa.) with 770 lux illumination over the center of the arena. Animals were allowed to explore for 20 min, during which total distance traveled was recorded using ANYmaze software (Stoelting Co., Wood Dale, Ill.), as previously described (Forcelli et al., 2012)."}, "opiate receptors": {"test_system": "opiate receptors", "experiment": "[3H]-naloxone binding competition in rat forebrain membranes"}, "human α4β2 nAChRs": {"target": "T1, human α4β2 nAChRs (Homo sapiens, UniProt P17787+P43681)", "T1 construct": "expressed in transfected cells", "T1 sequence (P43681 29-627 limits assumed)": "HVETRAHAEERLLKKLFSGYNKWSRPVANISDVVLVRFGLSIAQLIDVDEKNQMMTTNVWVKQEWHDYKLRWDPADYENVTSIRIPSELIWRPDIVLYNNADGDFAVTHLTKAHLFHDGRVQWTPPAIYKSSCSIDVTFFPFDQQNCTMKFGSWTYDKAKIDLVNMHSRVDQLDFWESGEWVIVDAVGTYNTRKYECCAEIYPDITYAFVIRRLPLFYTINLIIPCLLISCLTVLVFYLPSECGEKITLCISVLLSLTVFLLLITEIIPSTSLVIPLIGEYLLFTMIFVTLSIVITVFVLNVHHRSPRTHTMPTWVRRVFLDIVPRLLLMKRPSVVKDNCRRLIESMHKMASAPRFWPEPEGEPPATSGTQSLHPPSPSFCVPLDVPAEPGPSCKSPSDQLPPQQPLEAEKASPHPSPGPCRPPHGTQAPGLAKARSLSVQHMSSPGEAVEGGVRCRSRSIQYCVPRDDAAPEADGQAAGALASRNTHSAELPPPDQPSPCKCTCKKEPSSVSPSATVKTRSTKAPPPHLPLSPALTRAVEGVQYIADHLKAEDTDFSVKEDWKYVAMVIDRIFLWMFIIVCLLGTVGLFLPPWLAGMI", "T1 sequence (P17787 26-502)": "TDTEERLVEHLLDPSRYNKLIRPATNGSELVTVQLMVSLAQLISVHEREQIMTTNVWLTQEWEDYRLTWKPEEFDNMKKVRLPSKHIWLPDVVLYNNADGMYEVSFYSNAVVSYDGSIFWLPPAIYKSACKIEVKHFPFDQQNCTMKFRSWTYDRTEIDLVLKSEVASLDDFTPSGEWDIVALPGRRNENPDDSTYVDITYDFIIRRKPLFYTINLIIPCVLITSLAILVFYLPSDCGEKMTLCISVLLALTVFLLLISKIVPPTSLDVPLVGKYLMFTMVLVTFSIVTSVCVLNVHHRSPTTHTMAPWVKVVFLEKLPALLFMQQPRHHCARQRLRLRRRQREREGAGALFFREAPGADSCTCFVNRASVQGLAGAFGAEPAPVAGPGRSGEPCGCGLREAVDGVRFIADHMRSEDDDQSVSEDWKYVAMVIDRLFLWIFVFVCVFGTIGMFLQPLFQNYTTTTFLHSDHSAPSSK", "experiment": "86Rb+ efflux assay, inhibition of nicotine-stimulated efflux, α4β2 nAChRs", "assay_type": "cell-based", "details": "86Rb+ efflux stimulated by 100 μM nicotine; HEK cells YXα4β2H1; mean ± standard error", "experimental": "(§1) Stable cell lines and ^86Rb^+ efflux Assay. The cell lines expressing human α4β2 (YXα4β2H1) and α3β4 (YXα3β4H1) nAChRs were established recently (Xiao el al., 2012). These cell lines were maintained in minimum essential medium (MEM) supplemented with 10% fetal bovine serum, 100 units/mL penicillin G, […] streptomycin and selective antibiotics at 37° C. with 5% CO2 in a humidified incubator. Tissue culture medium and antibiotics were obtained from Invitrogen Corporation (Carlsbad, Calif.), unless otherwise stated. Fetal bovine serum was obtained from Gemini Bio-Products (Woodland, Calif.).\n(§2) Functional properties of compounds at nAChRs expressed in the transfected cells were measured using ^86Rb^+ efflux assays as described previously (Xiao et al., 1998, 2001). In brief, cells were plated into 24-well plates coated with poly-D-lysine. The plated cells were grown at 37° C. for 18 to 24 hour to reach 85-95% confluence. The cells were then incubated in growth medium (0.5 mL/well) containing ^86Rb^+ (2 μCi/mL) for 4 hour at 37° C. The loading mixture was then aspirated, and the cells were washed four times with 1 mL buffer (15 mM HEPES, 140 mM NaCl, 2 mM KCl, 1 mM MgSO4, 1.8 mM CaCl2), 11 mM Glucose, pH 7.4). One mL of buffer with or without compounds to be tested was then added to each well. After incubation for 2 min, the assay buffer was collected for measurements of ^86Rb^+ released from the cells. Cells were then lysed by adding 1 mL of 100 mM NaOH to each well, and the lysate was collected for determination of the amount of ^86Rb^+ that was in the cells at the end of the efflux assay. Radioactivity of assay samples and lysates was measured by liquid scintillation counting. Total loading (cpm) was calculated as the sum of the assay sample and the lysate of each well, and the amount of ^86Rb^+ efflux was expressed as a percentage of ^86Rb^+ loaded. Stimulated ^86Rb^+ efflux was defined as the difference between efflux in the presence and absence of nicotine. […] IC50 values were determined by nonlinear least-squares regression analyses (GraphPad. San Diego, Calif.)."}, "human α3β4 nAChRs": {"target": "T2, human α3β4 nAChRs (Homo sapiens, UniProt P30926+P32297)", "T2 construct": "expressed in transfected cells", "T2 sequence (P32297 32-505)": "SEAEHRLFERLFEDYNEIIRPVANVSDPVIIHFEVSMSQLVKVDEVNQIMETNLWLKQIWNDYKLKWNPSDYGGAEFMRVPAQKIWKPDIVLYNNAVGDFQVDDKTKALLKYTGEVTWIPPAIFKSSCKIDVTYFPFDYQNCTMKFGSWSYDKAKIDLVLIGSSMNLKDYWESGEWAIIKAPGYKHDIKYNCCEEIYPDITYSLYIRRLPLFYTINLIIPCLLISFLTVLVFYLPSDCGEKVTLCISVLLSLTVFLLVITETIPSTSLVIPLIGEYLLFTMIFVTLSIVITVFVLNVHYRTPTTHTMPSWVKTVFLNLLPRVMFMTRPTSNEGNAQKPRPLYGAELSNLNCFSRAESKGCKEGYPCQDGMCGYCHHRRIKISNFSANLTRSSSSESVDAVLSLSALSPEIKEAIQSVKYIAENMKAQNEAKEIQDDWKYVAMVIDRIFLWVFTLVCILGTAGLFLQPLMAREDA", "T2 sequence (P30926 22-498)": "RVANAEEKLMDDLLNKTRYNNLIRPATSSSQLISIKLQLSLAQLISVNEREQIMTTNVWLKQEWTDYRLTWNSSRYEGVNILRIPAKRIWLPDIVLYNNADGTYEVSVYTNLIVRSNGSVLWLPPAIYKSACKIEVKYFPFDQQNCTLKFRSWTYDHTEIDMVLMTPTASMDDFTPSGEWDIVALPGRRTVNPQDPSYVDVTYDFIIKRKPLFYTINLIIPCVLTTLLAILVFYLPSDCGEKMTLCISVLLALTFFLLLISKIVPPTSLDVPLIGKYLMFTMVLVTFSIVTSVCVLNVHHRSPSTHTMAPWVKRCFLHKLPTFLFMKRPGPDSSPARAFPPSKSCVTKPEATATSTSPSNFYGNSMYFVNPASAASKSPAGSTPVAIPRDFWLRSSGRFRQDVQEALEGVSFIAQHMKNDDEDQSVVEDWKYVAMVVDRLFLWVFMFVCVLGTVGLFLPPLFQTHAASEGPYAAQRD", "experiment": "86Rb+ efflux assay, inhibition of nicotine-stimulated efflux, α3β4 nAChRs", "assay_type": "cell-based", "details": "86Rb+ efflux stimulated by 100 μM nicotine; HEK cells YXα3β4H1; mean ± standard error", "experimental": "as §1, with “The cell lines expressing human α4β2 (YXα4β2H1) and α3β4 (YXα3β4H1) nAChRs were established recently (Xiao el al., 2012).” left out\nas §2, with “In” for “Functional properties of compounds at nAChRs expressed in the transfected cells were measured using ^86Rb^+ efflux assays as described previously (Xiao et al., 1998, 2001). In”, “The plated cells were grown at 37° C. for 18 to 24 hour to reach 85-95% confluence.” left out"}, "[3]": {"experiment": "Eyelid ptosis assessment (rats)", "assay_type": "in vivo, rat", "details": "5 mg/kg", "experimental": "Ptosis was assessed as previously described (Rubin et al., 1957). Each animal was photographed while gently restrained by hand. Photographs were analyzed by a treatment blind observer (P.A.F.) and assigned a score of 0 (no ptosis, eye completely open), 1 (mild, eye partially closed), 2 (moderate, eye half closed), 3 (severe, eye […] closed), or 4 (complete, eye completely closed)."}},
  "note": "Where “and” joins values, the source holds several entries; their conditions need not be identical. Equal values may be shown once. Where a name gives a salt, the structure may show the parent alone.",
  "data": [
    {"smiles": "CC=C1N(C)C(C)CC1(c1ccccc1)c1ccccc1", "note": "(racemic) [EDDP, 2-ethylidene-1,5-dimethyl-3,3-diphenylpyrrolidine]", "values": [
      {"measurement": "duration of immobility in forced swim test vs vehicle", "setting": "Forced swim test (mice); 1 mg/kg i.p.", "result": "did not produce a significant effect"},
      {"measurement": "duration of immobility in forced swim test vs vehicle", "setting": "Forced swim test (mice); 5 mg/kg i.p.", "result": "did not produce a significant effect"},
      {"measurement": "duration of immobility in forced swim test vs vehicle", "setting": "Forced swim test (mice); 10 mg/kg i.p.", "result": "did not produce a significant effect"},
      {"measurement": "block of rat α3β4 nAChR channels", "setting": "rat α3β4 nAChR channels", "result": "potently block"},
      {"measurement": "number of marbles buried vs vehicle", "setting": "Marble burying (mice); 5 mg/kg i.p.", "result": "buried significantly fewer marbles"},
      {"measurement": "number of marbles buried vs vehicle", "setting": "Marble burying (mice); 10 mg/kg i.p.", "result": "did not reach statistical significance"},
      {"measurement": "mean duration in the open arms of the elevated plus maze", "setting": "[1]; 10 mg/kg s.c., 30 min after drug, vehicle 104 s", "result": 80, "unit": "s"},
      {"measurement": "percentage of entries made into the open arms of the plus maze", "setting": "[1]; vs vehicle", "result": "the groups did not differ"},
      {"measurement": "latency to first entry in the open arms", "setting": "[1]; vs vehicle (data not shown)", "result": "did not differ as a function of treatment group"},
      {"measurement": "immobile time in forced swim test vs vehicle", "setting": "Forced swim test (rats); 10 mg/kg s.c.", "result": "without effect"},
      {"measurement": "open field locomotor activity", "setting": "[2]", "result": "neither EDDP nor EMDP significantly altered"},
      {"measurement": "apparent affinity, fold lower than that of methadone", "setting": "opiate receptors; rat forebrain [3H]-naloxone binding", "result": "~83 fold and 84 fold"},
      {"measurement": "fraction of [3H]-naloxone binding sites competed for", "setting": "opiate receptors; rat forebrain membranes", "result": "nearly all of the binding sites"},
      {"measurement": "Ki", "setting": "opiate receptors; rat forebrain membranes, 2 nM [3H]-naloxone, single-site model", "result": 0.918, "unit": "µM"}
    ]},
    {"smiles": "CC=C1N(C)C(C)CC1(c1ccccc1)c1ccccc1", "note": "(single isomer, unassigned; (+)) [(+)-EDDP, 2-ethylidene-1,5,dimethyl-3,3-diphenylpyrrolidine perchlorate]", "values": [
      {"measurement": "IC50", "setting": "human α4β2 nAChRs", "result": "1.8 ± 0.6", "unit": "µM"},
      {"measurement": "IC50", "setting": "human α3β4 nAChRs", "result": "0.9 ± 0.09", "unit": "µM"}
    ]},
    {"smiles": "CCC1=NC(C)CC1(c1ccccc1)c1ccccc1", "note": "(single isomer, unassigned; (+)) [(+)-EMDP, 2-ethyl-5-methyl-3,3-diphenyl-1-pyrroline hydrochloride]", "values": [
      {"measurement": "IC50", "setting": "human α4β2 nAChRs", "result": "24 ± 5", "unit": "µM"},
      {"measurement": "IC50", "setting": "human α3β4 nAChRs", "result": "7.4 ± 2.1", "unit": "µM"}
    ]},
    {"smiles": "CC=C1N(C)C(C)CC1(c1ccccc1)c1ccccc1", "note": "(single isomer, unassigned; (-)) [(−)-EDDP, 2-ethylidene-1,5,dimethyl-3,3-diphenylpyrrolidine perchlorate]", "values": [
      {"measurement": "IC50", "setting": "human α4β2 nAChRs", "result": "1.4 ± 0.2", "unit": "µM"},
      {"measurement": "IC50", "setting": "human α3β4 nAChRs", "result": "0.7 ± 0.06", "unit": "µM"}
    ]},
    {"smiles": "CCC1=NC(C)CC1(c1ccccc1)c1ccccc1", "note": "(single isomer, unassigned; (-)) [(−)-EMDP, 2-ethyl-5-methyl-3,3-diphenyl-1-pyrroline hydrochloride]", "values": [
      {"measurement": "IC50", "setting": "human α4β2 nAChRs", "result": "19 ± 4", "unit": "µM"},
      {"measurement": "IC50", "setting": "human α3β4 nAChRs", "result": "7 ± 1.2", "unit": "µM"}
    ]},
    {"smiles": "CNC1=Nc2ccc(Cl)cc2C(c2ccccc2)=[N+]([O-])C1", "note": "[CDP, chlordiazepoxide HCl, reference compound]", "values": [
      {"measurement": "number of marbles buried vs vehicle", "setting": "Marble burying (mice); 10 mg/kg i.p.", "result": "buried significantly fewer marbles"}
    ]},
    {"smiles": "CNC1(C)C2CCC(C2)C1(C)C", "note": "(centres unmarked) [Mecamylamine, Mecamylamine HCl]", "values": [
      {"measurement": "IC50", "setting": "human α4β2 nAChRs", "result": "1 ± 0.3", "unit": "µM"},
      {"measurement": "immobile time in forced swim test vs vehicle", "setting": "Forced swim test (rats); 5 mg/kg s.c.", "result": "reduced immobile time"},
      {"measurement": "eyelid ptosis quantified over 3 h", "setting": "[3]", "result": "produced ptosis in a time-dependent manner"},
      {"measurement": "onset of ptosis after injection", "setting": "[3]", "result": "≤ 15", "unit": "min"},
      {"measurement": "ptosis observed during forced swim tests", "setting": "[3]", "result": "obvious ptosis"}
    ]},
    {"smiles": "CN[C@H]1CC[C@@H](c2ccc(Cl)c(Cl)c2)c2ccccc21", "note": "[sertraline, sertraline HCl, reference compound]", "values": [
      {"measurement": "immobile time in forced swim test vs vehicle", "setting": "Forced swim test (rats); 20 mg/kg s.c.", "result": "significantly reduced immobile time"}
    ]}
  ]
}
